Experimental data: patent publication US20260216348A1, “IRAK DEGRADATION AGENT AND USE THEREOF” (Increland, priority 2023, published 2026)
pIC50: −log10 of the molar value.

Experiments:
Type in all cases: cell-based
[1] = test system: R848-induced IL-6 secretion in human peripheral blood mononuclear cells (PBMCs); experiment: Inhibition of R848-induced IL-6 secretion in human PBMCs (IL-6 ELISA); conditions: PBMC, R848 2.5 μg/mL, 20 h pre-incubation, 24 h stimulation
Procedure: This experiment was carried out in RPMI 1640 medium containing 10% FBS and 1% penicillin/streptomycin, with each of the compounds at an initial test concentration of 1 μM. The compound was dissolved in DMSO to prepare a stock solution, which was serially diluted into a series of working solutions with a 4-fold concentration gradient using the culture medium and then added to a 96-well plate at 10 μL per well. PBMCs (Batch No.: P122101102C; Milecell Biotechnology Inc.) were counted and diluted to a cell concentration of 1.25×10^6 cells/mL, and then added to the aforementioned compound-containing 96-well plate at 160 μL per well. The system was mixed well and incubated in a 5% CO2 incubator at 37° C. for 20 h. Then 10 μL of R848 (final concentration: 2.5 μg/mL) was added, and the culture was continued for 24 h in a 5% CO2 incubator at 37° C. After incubation, the 96-well plate was centrifuged at 2000 rpm for 4 min. The supernatant was collected and diluted 120-fold, then detected using an IL-6 ELISA kit. The OD450 values were read, and converted to IL-6 concentrations based on a standard curve.

[2] = test system: LPS/IL-1β-induced IL-6 secretion in human peripheral blood mononuclear cells (PBMCs); experiment: Inhibition of LPS/IL-1β-induced IL-6 secretion in human PBMCs (IL-6 ELISA); conditions: PBMC, LPS 10 ng/mL + IL-1β 20 ng/mL, 24 h pre-incubation, 20 h stimulation
Procedure: This experiment was carried out in RPMI 1640 medium containing 10% FBS and 1% penicillin/streptomycin, with each of the compounds at an initial test concentration of 1 μM.
The compound was dissolved in DMSO to prepare a stock solution, which was serially diluted into some working solutions with a 5-fold concentration gradient using the culture medium and then added to a 96-well plate at 10 μL per well. PBMCs (Batch No.: P122101102C; Milecell Biotechnology Inc.) were counted and diluted to a cell concentration of about 1.3×10^6 cells/mL, and then added to the aforementioned compound-containing 96-well plate at 150 μL per well. The system was mixed well and incubated in a 5% CO2 incubator at 37° C. for 24 h. Then 5 μL of LPS (final concentration: 10 ng/mL) and 5 μL of IL-1β (final concentration: 20 ng/mL) were added to each well, respectively, and the culture was continued for 20 h in a 5% CO2 incubator at 37° C. After incubation, the 96-well plate was centrifuged at 2000 rpm for 4 min. The supernatant was collected and diluted 200-fold, then detected using an IL-6 ELISA kit. The OD450 values were read, and converted to IL-6 concentrations based on a standard curve. The dose-response curves were fitted using GraphPad 8.0 to calculate the IC50 values.

IRAK4 = target: T1, IRAK4 (Homo sapiens, UniProt Q9NWZ3); experiment: IRAK4 protein degradation in THP1 cells (Western blot); conditions: THP-1 cells, 24 h
T1 construct: Effect of the Compounds on IRAK4 Protein Degradation in THP1 Cells; endogenous in cells; host or cells: THP-1 cells
T1 sequence (Q9NWZ3 1-460): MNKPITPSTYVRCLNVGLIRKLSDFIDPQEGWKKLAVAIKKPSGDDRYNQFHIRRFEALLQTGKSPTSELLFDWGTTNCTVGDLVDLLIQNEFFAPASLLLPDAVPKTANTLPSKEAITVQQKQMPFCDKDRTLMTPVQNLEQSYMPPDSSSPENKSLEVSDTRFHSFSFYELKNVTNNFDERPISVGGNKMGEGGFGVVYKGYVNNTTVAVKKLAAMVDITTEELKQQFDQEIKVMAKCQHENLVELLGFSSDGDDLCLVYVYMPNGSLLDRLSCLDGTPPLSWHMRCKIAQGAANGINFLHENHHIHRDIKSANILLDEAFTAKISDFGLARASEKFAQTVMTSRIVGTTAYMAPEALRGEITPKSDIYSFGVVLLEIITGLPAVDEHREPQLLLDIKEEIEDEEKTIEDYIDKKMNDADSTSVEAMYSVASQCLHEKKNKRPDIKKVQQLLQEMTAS
Procedure: THP-1 cells were seeded into a 96-well cell culture plate, with 2×10^5 cells and 90 μL of culture medium per well. The cell culture plate was cultured in an incubator with 5% CO2 at 37° C. overnight. The compound was dissolved in DMSO to prepare a stock solution, which was serially diluted into a series of working solutions with a 5-fold concentration gradient using the culture medium and then added to the aforementioned 96-well plate at 10 μL per well. The cell culture plate was further incubated for 24 h in a 5% CO2 incubator at 37° C. After incubation, the 96-well plate was centrifuged and the supernatant was discarded, followed by adding 40 μL of cell lysis buffer containing […]/phosphatase inhibitors to each well for sufficient lysis on an ice bath. Protein quantification was performed using the BCA protein quantification kit, followed by the preparation of Western blot samples. […] After electrophoresis, protein transfer was performed using a PVDF membrane under ice bath conditions for 1 h. After the transfer was completed, the PVDF membrane was blocked with gentle shaking in 5% skim milk at room temperature for 1 h. After blocking, the PVDF membrane was incubated with the primary antibody overnight with gentle shaking at 4° C. The PVDF membrane was washed 3 times with TBST, then the secondary antibody was added and incubated for 1 h with gentle shaking at room temperature, followed by washing of the PVDF membrane with TBST for 3 times. After the washes were completed, the chemiluminescent substrate was added; the PVDF membrane was scanned using a Clinx imager, semi-quantitative analysis was performed with ImageJ software, and the DC50 was calculated using GraphPad Prism 8.0.

Row | DC50 (IRAK4) | Compound | pIC50 [1] | pIC50 [2]
1 | – | CN(C)c1cc2nn([C@H]3CC[C@H](CN4C[C@H](F)[C@@H](n5cc6c(F)cc(N7CCC(=O)NC7=O)cc6n5)C4)CC3)cc2cc1NC(=O)c1cnn2cccnc12 [TM-220] | 8.09 | –
2 | – | CN(C)c1cc2nn(C3CCC(CN4C[C@@H](F)[C@@H](n5cc6cc(N7CCC(=O)NC7=O)ccc6n5)C4)CC3)cc2cc1NC(=O)c1cnn2cccnc12 (some centres unmarked) [TM-206] | 8.26 | –
3 | 1.27 nM | CN(C)c1cc2nn([C@H]3CC[C@H](CN4CC[C@@H](n5cc6ccc(C7CCC(=O)NC7=O)cc6n5)[C@@H](F)C4)CC3)cc2cc1NC(=O)c1cnn2cccnc12 (some centres unmarked) [TM-154] | – | 8.84
4 | 4.06 nM | CN(C)c1cc2nn([C@H]3CC[C@H](CN4CC[C@H](n5cc6ccc(N7CCC(=O)NC7=O)cc6n5)[C@@H](F)C4)CC3)cc2cc1NC(=O)c1cnn2cccnc12 [TM-31] | – | 8.48
5 | 4.26 nM | CN(C)c1cc2nn([C@H]3CC[C@H](CN4CC[C@H](n5cc6cc(N7CCC(=O)NC7=O)c(F)cc6n5)[C@H](F)C4)CC3)cc2cc1NC(=O)c1cnn2cccnc12 [TM-130] | – | 8.29
6 | 1.4 nM | CN(C)c1cc2nn([C@H]3CC[C@H](CN4CC[C@H](n5cc6ccc(N7CCC(=O)NC7=O)cc6n5)[C@H](F)C4)CC3)cc2cc1NC(=O)c1cnn2cccnc12 [TM-32] | – | 8.92
7 | 3.73 nM | CN(C)c1cc2nn(C3CCN(C[C@H]4CC[C@H](n5cc6cc(C7CCC(=O)NC7=O)ccc6n5)CC4)CC3)cc2cc1NC(=O)c1cnn2cccnc12 (some centres unmarked) [TM-7] | – | 9.74
8 | 1.66 nM | CN(C)c1cc2nn([C@H]3CC[C@H](CN4CC[C@H](n5cc6ccc(C7CCC(=O)NC7=O)cc6n5)[C@@H](F)C4)CC3)cc2cc1NC(=O)c1cnn2cccnc12 (some centres unmarked) [TM-151] | – | 8.15
9 | 0.93 nM | CN(C)c1cc2nn([C@H]3CC[C@H](CN4CC[C@@H](n5cc6cc(N7CCC(=O)NC7=O)c(F)cc6n5)[C@@H](F)C4)CC3)cc2cc1NC(=O)c1cnn2cccnc12 [TM-42] | – | 8.78
10 | 4.33 nM | CN(C)c1cc2nn([C@H]3CC[C@H](CN4CCC5(CC4)C[C@@H](n4cc6cc(C7CCC(=O)NC7=O)c(F)cc6n4)CO5)CC3)cc2cc1NC(=O)c1cnn2cccnc12 (some centres unmarked) [TM-141] | – | 8.35
11 | 1.41 nM | CN(C)c1cc2nn([C@H]3CC[C@H](CN4CC[C@@H](n5cc6cc(N7CCC(=O)NC7=O)ccc6n5)[C@@H](F)C4)CC3)cc2cc1NC(=O)c1cnn2cccnc12 [TM-15] | – | 8.40
12 | 1.19 nM | CN(C)c1cc2nn([C@H]3CC[C@H](CN4CC[C@H](n5cc6cc(N7CCC(=O)NC7=O)ccc6n5)[C@@H](F)C4)CC3)cc2cc1NC(=O)c1cnn2cccnc12 [TM-17] | – | 8.47
13 | 4.62 nM | CN(C)c1cc2nn(C3CCN(C[C@H]4CC[C@H](n5cc6ccc(C7CCC(=O)NC7=O)cc6n5)CC4)CC3)cc2cc1NC(=O)c1cnn2cccnc12 (some centres unmarked) [TM-5] | – | 9.59
14 | 4.27 nM | C[C@H]1CN(C[C@H]2CC[C@H](n3cc4cc(NC(=O)c5cnn6cccnc56)c(N(C)C)cc4n3)CC2)CC[C@@H]1n1cc2ccc(N3CCC(=O)NC3=O)cc2n1 [TM-27] | – | 8.83
15 | 0.77 nM | C[C@@H]1CN(C[C@H]2CC[C@H](n3cc4cc(NC(=O)c5cnn6cccnc56)c(N(C)C)cc4n3)CC2)CC[C@H]1n1cc2ccc(C3CCC(=O)NC3=O)cc2n1 (some centres unmarked) [TM-142] | – | 9.06
16 | 1.58 nM | CO[C@H]1CN(C[C@H]2CC[C@H](n3cc4cc(NC(=O)c5cnn6cccnc56)c(N(C)C)cc4n3)CC2)CC[C@@H]1n1cc2ccc(C3CCC(=O)NC3=O)cc2n1 (some centres unmarked) [TM-166] | – | 9.05
17 | 1.33 nM | CN(C)c1cc2nn([C@H]3CC[C@H](CN4CC[C@@H](n5cc6ccc(N7CCC(=O)NC7=O)cc6n5)[C@H](F)C4)CC3)cc2cc1NC(=O)c1cnn2cccnc12 [TM-30] | – | 8.98
18 | 19.9 nM | CN(C)c1cc2nn([C@H]3CC[C@H](CN4CC5(CCN(c6nc7ccc(N8CCC(=O)NC8=O)cc7s6)CC5)C4)CC3)cc2cc1NC(=O)c1cnn2cccnc12 [TM-67] | – | 8.40
19 | 135 nM | CN(C)c1cc2nn([C@H]3CC[C@H](CN4CCC(N5Cc6ccc(N7CCC(=O)NC7=O)cc6C5=O)CC4)CC3)cc2cc1NC(=O)c1cnn2cccnc12 [TM-143] | – | 7.92
20 | 2.86 nM | CO[C@H]1CN(C[C@H]2CC[C@H](n3cc4cc(NC(=O)c5cnn6cccnc56)c(N(C)C)cc4n3)CC2)CC[C@H]1n1cc2ccc(N3CCC(=O)NC3=O)cc2n1 [TM-33] | – | 9.06
21 | 3.82 nM | CN(C)c1cc2nn([C@H]3CC[C@H](CN4CCN(c5nc6cc(C7CCC(=O)NC7=O)ccc6o5)CC4)CC3)cc2cc1NC(=O)c1cnn2cccnc12 (some centres unmarked) [TM-106] | – | 8.60
22 | 18.1 nM | CN(C)c1cc2nn([C@H]3CC[C@H](CN4CC5(CCN(c6nc7ccc(C8CCC(=O)NC8=O)cn7n6)CC5)C4)CC3)cc2cc1NC(=O)c1cnn2cccnc12 (some centres unmarked) [TM-251] | – | 8.66
23 | 0.32 nM | CN(C)c1cc2nn([C@H]3CC[C@H](CN4CC[C@@H](n5cc6cc(C7CCC(=O)NC7=O)ccc6n5)[C@@H](F)C4)CC3)cc2cc1NC(=O)c1cnn2cccnc12 (some centres unmarked) [TM-156] | – | 8.93
24 | 0.31 nM | CN(C)c1cc2nn([C@H]3CC[C@H](CN4CC[C@H](n5cc6cc(C7CCC(=O)NC7=O)ccc6n5)[C@H](F)C4)CC3)cc2cc1NC(=O)c1cnn2cccnc12 (some centres unmarked) [TM-155] | – | 9.00
25 | < 1 nM | CN(C)c1cc2nn([C@H]3CC[C@H](CN4CC[C@@H](n5cc6cc(F)c(C7CCC(=O)NC7=O)cc6n5)[C@@H](F)C4)CC3)cc2cc1NC(=O)c1cnn2cccnc12 (some centres unmarked) [TM-139] | – | 8.36
26 | 1.13 nM | CN(C)c1cc2nn([C@H]3CC[C@H](CN4CC[C@@H](n5cc6ccc(N7CCC(=O)NC7=O)cc6n5)[C@@H](F)C4)CC3)cc2cc1NC(=O)c1cnn2cccnc12 [TM-29] | – | 9.06
27 | 1.41 nM | CN(C)c1cc2nn([C@H]3CC[C@H](CN4CC[C@H](n5cc6cc(F)c(C7CCC(=O)NC7=O)cc6n5)[C@@H](F)C4)CC3)cc2cc1C(=O)Nc1cnn2cccnc12 (some centres unmarked) [TM-158] | – | 7.84
28 | 4.31 nM | O=C1CCN(c2ccc3cn(C4CCN(C[C@H]5CC[C@H](n6cc7cc(NC(=O)c8cnn9cccnc89)c(N8CCOCC8)cc7n6)CC5)CC4)nc3c2)C(=O)N1 [TM-43] | – | 8.05
29 | 5.41 nM | CN(C)c1cc2nn([C@H]3CC[C@H](CN4CCC(n5cc6cc(N7CCC(=O)NC7=O)c(F)cc6n5)CC4)CC3)cc2cc1NC(=O)c1cnn2cccnc12 [TM-9] | – | 8.69
